From ChEMBL document CHEMBL4229332, “Novel multi-target azinesulfonamides of cyclic amine derivatives as potential antipsychotics with pro-social and pro-cognitive effects” (Eur J Med Chem, 2018)

Key:
[1] = molecular target: 5-hydroxytryptamine receptor 6 (Homo sapiens, UniProt P50406); test: Antagonist activity at human 5-HT6R expressed in CHO-K1 cells assessed as inhibition of serotonin-induced cAMP accumulation at 10^-6 M after 30 mins by chemiluminescence-based assay; format: functional, cell-based
[2] = molecular target: 5-hydroxytryptamine receptor 7 (Homo sapiens, UniProt P34969); test: Antagonist activity at human 5-HT7R expressed in CHO-K1 cells assessed as inhibition of serotonin-induced cAMP accumulation after 30 mins by chemiluminescence-based assay; format: functional, cell-based
[3] = molecular target: T1, 5-hydroxytryptamine receptor 2A (Homo sapiens, UniProt P28223); test: Antagonist activity at human 5-HT2AR expressed in HEK293 cells assessed as inhibition of serotonin-induced calcium flux after 30 mins by HTRF method; format: functional, cell-based
T1 sequence (P28223 whole entry): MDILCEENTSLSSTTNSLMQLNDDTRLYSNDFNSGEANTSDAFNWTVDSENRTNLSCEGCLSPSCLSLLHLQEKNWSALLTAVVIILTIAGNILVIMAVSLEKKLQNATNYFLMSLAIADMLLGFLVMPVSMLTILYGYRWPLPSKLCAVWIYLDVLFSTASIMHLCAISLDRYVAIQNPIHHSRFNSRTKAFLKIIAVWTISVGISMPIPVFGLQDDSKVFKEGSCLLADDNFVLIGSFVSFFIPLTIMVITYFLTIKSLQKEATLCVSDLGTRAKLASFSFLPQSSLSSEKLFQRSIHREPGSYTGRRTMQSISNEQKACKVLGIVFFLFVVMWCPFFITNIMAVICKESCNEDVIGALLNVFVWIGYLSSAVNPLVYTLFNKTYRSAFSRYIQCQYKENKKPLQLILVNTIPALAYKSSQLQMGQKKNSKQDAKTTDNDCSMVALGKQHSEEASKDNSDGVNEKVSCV

[4] = Toxicity in ip dosed Sprague-Dawley rat assessed as induction of catalepsy measured every 30 mins up to 240 mins by bar test; format: organism-based; conditions: Sprague-Dawley, in vivo
[5] = molecular target: D(2) dopamine receptor (Homo sapiens) (UniProt P14416); test: Antagonist activity at human D2LR expressed in CHO-K1 cells assessed as inhibition of dopamine-induced calcium flux at 10^-6 M by fluorimetric method; format: functional, cell-based
Sequence of D(2) dopamine receptor (Homo sapiens) (P14416 whole entry): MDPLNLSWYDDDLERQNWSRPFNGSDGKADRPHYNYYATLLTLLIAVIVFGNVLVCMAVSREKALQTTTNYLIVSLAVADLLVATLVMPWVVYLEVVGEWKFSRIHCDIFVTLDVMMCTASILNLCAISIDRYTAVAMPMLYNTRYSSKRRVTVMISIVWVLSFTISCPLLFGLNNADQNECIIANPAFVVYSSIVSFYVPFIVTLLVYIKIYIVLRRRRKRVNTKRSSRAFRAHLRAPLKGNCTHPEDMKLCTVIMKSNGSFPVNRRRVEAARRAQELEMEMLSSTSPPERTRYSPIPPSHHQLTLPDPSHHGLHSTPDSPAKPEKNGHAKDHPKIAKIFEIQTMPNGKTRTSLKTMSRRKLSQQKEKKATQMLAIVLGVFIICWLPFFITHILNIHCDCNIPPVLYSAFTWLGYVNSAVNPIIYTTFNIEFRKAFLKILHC

[6] = molecular target: T2, Alpha-1A adrenergic receptor (Homo sapiens) (UniProt P35348); test: Antagonist activity at human adrenergic alpha1A receptor expressed in CHO cells assessed as inhibition of epinephrine-induced calcium flux by fluorimetric method; format: functional, cell-based
T2 sequence (whole entry): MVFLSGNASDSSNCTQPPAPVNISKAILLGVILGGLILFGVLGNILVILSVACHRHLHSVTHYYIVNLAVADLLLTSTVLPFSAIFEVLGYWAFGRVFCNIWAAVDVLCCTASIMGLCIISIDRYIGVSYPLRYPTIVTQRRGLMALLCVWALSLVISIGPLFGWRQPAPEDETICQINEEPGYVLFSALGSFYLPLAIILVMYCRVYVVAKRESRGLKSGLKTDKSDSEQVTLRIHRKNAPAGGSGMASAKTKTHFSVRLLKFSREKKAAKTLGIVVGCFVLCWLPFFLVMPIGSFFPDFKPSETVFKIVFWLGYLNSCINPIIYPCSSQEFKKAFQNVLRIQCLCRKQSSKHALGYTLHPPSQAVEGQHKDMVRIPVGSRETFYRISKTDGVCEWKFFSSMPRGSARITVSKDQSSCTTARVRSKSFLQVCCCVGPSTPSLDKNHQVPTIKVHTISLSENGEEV

[7] = molecular target: T3, Sodium-dependent serotonin transporter (Homo sapiens, UniProt P31645); test: Displacement of [3H]-imipramine from human SERT expressed in CHO cells at 10^-6 M after 60 mins by scintillation counting method relative to control; format: cell-based
Target sequence in this assay (P31645 whole entry, looked up): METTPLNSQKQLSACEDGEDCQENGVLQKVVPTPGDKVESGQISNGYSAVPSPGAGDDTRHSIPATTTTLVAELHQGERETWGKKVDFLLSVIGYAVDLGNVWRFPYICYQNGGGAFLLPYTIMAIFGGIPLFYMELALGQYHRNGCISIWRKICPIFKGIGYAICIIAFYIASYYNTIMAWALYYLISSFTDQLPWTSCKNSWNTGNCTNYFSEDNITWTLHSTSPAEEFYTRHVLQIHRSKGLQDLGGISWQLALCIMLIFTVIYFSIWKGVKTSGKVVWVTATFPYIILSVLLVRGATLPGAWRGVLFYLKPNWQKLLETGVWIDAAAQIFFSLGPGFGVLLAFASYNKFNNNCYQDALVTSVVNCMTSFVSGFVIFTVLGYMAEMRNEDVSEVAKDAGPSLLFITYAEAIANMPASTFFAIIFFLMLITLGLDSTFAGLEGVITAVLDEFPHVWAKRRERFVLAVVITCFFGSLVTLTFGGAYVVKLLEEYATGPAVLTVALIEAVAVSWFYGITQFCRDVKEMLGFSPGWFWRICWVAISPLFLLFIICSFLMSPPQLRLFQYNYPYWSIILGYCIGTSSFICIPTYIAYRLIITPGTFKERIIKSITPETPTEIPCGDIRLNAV

[8] = Cmax in Wistar rat plasma at 9 mg/kg per os administered as a single dose by LC-MS/MS analysis; format: ADME, organism-based; parameters: dose 9 mg/kg; conditions: po
[9] = molecular target: 5-hydroxytryptamine receptor 3A (Homo sapiens) (UniProt P46098); test: Displacement of [3H]BRL 43694 from human 5-HT3 receptor expressed in CHO cells at 10^-6 M after 120 mins by scintillation counting analysis relative to control; format: cell-based
Sequence of 5-hydroxytryptamine receptor 3A (Homo sapiens) (P46098 whole entry): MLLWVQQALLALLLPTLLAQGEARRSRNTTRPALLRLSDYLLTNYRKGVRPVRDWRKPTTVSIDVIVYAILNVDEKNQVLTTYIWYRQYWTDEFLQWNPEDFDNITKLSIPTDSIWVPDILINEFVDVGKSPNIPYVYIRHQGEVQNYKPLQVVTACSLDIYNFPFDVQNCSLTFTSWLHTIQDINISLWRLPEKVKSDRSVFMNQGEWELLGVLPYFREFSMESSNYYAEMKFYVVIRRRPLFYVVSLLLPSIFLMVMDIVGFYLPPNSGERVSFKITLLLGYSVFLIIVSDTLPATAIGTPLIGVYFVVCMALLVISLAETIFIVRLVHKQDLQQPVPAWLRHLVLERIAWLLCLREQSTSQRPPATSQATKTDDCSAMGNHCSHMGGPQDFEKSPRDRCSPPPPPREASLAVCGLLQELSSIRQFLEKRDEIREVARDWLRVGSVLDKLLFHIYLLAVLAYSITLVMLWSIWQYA

[10] = molecular target: T3, Sodium-dependent serotonin transporter; test: Displacement of [3H]imipramine from recombinant human SERT expressed in CHO cells after 60 mins by scintillation counting method; format: cell-based
Target sequence in this assay (P31645 whole entry): as the sequence (P31645 whole entry, looked up) above

[11] = molecular target: 5-hydroxytryptamine receptor 2C (Homo sapiens) (UniProt P28335); test: Antagonist activity at human 5-HT2CR expressed in HEK293 cells assessed as inhibition of serotonin-induced IP1 accumulation after 30 mins by HTRF method; format: functional, cell-based
Sequence of 5-hydroxytryptamine receptor 2C (Homo sapiens) (P28335 whole entry): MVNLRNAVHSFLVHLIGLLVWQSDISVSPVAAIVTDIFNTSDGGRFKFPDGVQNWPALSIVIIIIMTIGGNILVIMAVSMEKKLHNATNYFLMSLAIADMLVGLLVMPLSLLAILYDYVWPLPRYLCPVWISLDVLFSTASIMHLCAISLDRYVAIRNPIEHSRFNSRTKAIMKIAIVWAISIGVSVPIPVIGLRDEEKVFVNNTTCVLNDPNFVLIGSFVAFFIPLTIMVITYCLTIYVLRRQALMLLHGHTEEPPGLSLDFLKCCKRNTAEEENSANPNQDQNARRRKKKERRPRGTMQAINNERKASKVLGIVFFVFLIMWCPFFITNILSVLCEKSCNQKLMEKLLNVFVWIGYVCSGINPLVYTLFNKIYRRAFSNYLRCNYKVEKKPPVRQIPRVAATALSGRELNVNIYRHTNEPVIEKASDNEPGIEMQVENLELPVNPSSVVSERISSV

[12] = molecular target: D(3) dopamine receptor (Homo sapiens) (UniProt P35462); test: Antagonist activity at human D3R expressed in CHO-K1 cells assessed as inhibition of […] cAMP accumulation at 10^-6 M by chemiluminescence-based assay; format: functional, cell-based
Sequence of D(3) dopamine receptor (Homo sapiens) (P35462 whole entry): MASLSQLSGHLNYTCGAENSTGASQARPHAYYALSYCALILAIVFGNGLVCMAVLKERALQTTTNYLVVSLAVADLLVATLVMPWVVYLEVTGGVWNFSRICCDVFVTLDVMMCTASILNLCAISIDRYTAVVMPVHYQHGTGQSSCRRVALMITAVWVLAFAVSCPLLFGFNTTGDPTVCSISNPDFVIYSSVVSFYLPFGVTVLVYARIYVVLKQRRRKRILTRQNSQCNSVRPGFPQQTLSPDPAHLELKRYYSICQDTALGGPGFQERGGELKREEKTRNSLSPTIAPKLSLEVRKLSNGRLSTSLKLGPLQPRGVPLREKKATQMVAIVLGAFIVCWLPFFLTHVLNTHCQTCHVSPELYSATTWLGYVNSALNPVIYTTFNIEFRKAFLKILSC

[13] = molecular target: D(2) dopamine receptor (Homo sapiens) (UniProt P14416); test: Antagonist activity at human D2LR expressed in CHO-K1 cells assessed as inhibition of dopamine-induced cAMP accumulation at 10^-6 M by chemiluminescence-based assay; format: functional, cell-based
[14] = molecular target: Beta-2 adrenergic receptor (Homo sapiens) (UniProt P07550); test: Displacement of CGP 12177 from human adrenergic beta2 receptor expressed in CHO cells at 10^-6 M after 60 mins by scintillation counting method relative to contro; format: cell-based
Sequence of Beta-2 adrenergic receptor (Homo sapiens) (P07550 whole entry, looked up): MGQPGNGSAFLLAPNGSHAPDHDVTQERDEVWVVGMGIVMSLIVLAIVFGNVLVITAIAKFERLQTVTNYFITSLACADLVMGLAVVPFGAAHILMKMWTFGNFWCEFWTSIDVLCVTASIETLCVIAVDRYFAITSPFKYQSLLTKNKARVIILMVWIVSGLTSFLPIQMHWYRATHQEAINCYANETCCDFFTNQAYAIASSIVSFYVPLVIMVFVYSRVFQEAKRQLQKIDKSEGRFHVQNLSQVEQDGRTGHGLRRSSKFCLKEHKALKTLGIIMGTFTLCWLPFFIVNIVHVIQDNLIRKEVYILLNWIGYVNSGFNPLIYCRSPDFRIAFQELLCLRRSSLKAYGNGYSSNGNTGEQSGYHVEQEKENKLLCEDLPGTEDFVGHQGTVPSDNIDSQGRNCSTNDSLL

[15] = molecular target: T4, 5-hydroxytryptamine receptor 1A (Homo sapiens, UniProt P08908); test: Displacement of [3H]-WAY100635 from recombinant full-length human 5-HT1AR expressed in CHO cells after 120 mins by scintillation counting method; format: cell-based
T4 sequence (P08908 whole entry): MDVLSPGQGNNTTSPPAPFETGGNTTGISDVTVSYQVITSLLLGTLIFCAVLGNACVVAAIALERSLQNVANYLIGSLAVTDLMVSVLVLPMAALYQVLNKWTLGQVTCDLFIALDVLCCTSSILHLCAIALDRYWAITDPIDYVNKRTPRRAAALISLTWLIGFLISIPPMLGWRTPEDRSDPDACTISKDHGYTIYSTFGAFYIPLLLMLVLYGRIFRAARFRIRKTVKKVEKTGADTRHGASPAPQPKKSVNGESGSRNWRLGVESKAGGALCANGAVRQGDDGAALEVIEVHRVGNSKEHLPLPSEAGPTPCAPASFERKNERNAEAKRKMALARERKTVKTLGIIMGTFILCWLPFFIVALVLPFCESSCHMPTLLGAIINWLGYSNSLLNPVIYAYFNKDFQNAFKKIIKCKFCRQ

[16] = molecular target: 5-hydroxytryptamine receptor 2B (Homo sapiens) (UniProt P41595); test: Displacement of [3H]mesulergine from human 5-HT2B receptor expressed in CHO cells at 10^-6 M after 60 mins by scintillation counting analysis relative to control; format: cell-based
Sequence of 5-hydroxytryptamine receptor 2B (Homo sapiens) (P41595 whole entry): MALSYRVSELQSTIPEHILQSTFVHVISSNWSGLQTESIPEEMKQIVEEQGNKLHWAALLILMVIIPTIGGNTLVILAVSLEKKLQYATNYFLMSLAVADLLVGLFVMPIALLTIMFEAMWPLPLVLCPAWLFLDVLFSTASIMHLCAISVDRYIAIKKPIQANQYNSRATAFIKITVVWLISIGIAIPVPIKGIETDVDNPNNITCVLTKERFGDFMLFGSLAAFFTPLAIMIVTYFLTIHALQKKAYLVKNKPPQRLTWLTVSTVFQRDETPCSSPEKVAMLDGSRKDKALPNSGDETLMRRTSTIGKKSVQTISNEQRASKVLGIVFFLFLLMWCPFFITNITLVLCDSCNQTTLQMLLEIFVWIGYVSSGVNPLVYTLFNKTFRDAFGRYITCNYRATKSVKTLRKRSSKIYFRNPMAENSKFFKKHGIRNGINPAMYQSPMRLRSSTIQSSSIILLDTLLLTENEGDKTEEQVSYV

[17] = molecular target: T1, 5-hydroxytryptamine receptor 2A; test: Displacement of [3H]ketanserin from human recombinant 5-HT2A receptor after 60 mins by scintillation counting analysis
[18] = molecular target: T5, 5-hydroxytryptamine receptor 1A (Homo sapiens) (UniProt P08908); test: Antagonist activity at human 5-HT1AR expressed in CHO-K1 cells assessed as inhibition of serotonin-induced cAMP accumulation at 10^-6 M by chemiluminescence-based assay; format: functional, cell-based
T5 sequence (whole entry): T4 sequence (P08908 whole entry)

[19] = molecular target: T4, 5-hydroxytryptamine receptor 1A; test: Partial agonist activity at human 5-HT1AR expressed in CHO-K1 cells assessed as increase in cAMP accumulation by chemiluminescence-based assay; format: functional, cell-based
[20] = molecular target: T1, 5-hydroxytryptamine receptor 2A; test: Antagonist activity at human 5-HT2AR expressed in HEK293 cells assessed as inhibition of serotonin-induced IP1 accumulation by chemiluminescence-based assay; format: functional, cell-based
[21] = molecular target: D(2) dopamine receptor (Homo sapiens) (UniProt P14416); test: Antagonist activity at human D2LR expressed in CHO-K1 cells assessed as inhibition of dopamine-induced cAMP accumulation by chemiluminescence-based assay; format: functional, cell-based
[22] = molecular target: Beta-1 adrenergic receptor (Homo sapiens) (UniProt P08588); test: Displacement of [3H]-CGP 12177 from human adrenergic beta1 receptor expressed in HEK293 cells at 10^-6 M after 60 mins by scintillation counting method relative to control; format: cell-based
[23] = molecular target: 5-hydroxytryptamine receptor 1B (Rattus norvegicus) (UniProt P28564); test: Displacement of [125I]-CYP from 5-HT1BR in rat cerebral cortex at 10^-6 M after 120 mins by scintillation counting analysis relative to control
Sequence of 5-hydroxytryptamine receptor 1B (Rattus norvegicus) (P28564 whole entry): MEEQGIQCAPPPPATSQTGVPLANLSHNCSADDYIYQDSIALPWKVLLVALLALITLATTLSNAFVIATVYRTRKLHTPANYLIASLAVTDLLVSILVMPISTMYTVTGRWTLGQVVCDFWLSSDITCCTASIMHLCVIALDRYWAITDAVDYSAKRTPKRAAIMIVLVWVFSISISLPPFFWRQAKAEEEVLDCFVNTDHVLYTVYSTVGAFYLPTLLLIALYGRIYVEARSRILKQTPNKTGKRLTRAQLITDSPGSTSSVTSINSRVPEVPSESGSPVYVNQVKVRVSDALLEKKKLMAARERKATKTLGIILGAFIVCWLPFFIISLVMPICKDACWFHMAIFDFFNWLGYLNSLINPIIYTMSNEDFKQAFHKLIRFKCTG

[24] = molecular target: 5-hydroxytryptamine receptor 2C (Homo sapiens) (UniProt P28335); test: Displacement of [3H]mesulergine from human 5-HT2C receptor expressed in CHO cells at 10^-6 M after 120 mins by scintillation counting analysis relative to control; format: cell-based

O=S(=O)(c1cncc2ccccc12)N1CCC[C@H]1CCN1CCN(c2nsc3ccccc23)CC1
inhibition [1]: 23%
Kb [2]: 0.0025 µM
Kb [3]: 0.002 µM
MTD [4]: 30 mg/kg
inhibition [5]: 100%

O=S(=O)(c1cncc2ccccc12)N1CCC[C@H]1CCN1CCN(c2cccc3sccc23)CC1
Kb [6]: 0.013 µM
inhibition [7]: 84%
Cmax [8]: 0.054 µM
inhibition [9]: 15%
Ki [10]: 0.076 µM
Kb [11]: 0.024 µM
inhibition [12]: 73%
inhibition [13]: 92%
inhibition [14]: 25%
Ki [15]: 0.018 µM
inhibition [16]: 100%
Ki [17]: 0.009 µM
inhibition [18]: 32.5%
EC50 [19]: 0.0283 µM
Kb [20]: 0.0023 µM
Kb [21]: 0.003 µM
inhibition [22]: 31%
inhibition [23]: 84%
inhibition [24]: 80%
